Reference: article PMC9071946, “In vitro and in silico determination of glutaminyl cyclase inhibitors” (RSC Advances, 2019)

How the values were obtained:
[1] = target: human glutaminyl cyclase (hQC) (Homo sapiens, UniProt Q16769); assay: hQC inhibition, fluorometric assay with fluorogenic substrate Glu-AMC and pGAPase
Description: The synthesized compounds were evaluated for hQC inhibition by a fluorometric assay with a fluorogenic substrate, Glu-AMC·HBr (L-glutamine 7-amido-4-methylcoumarin, BACHEM, Switzerland), and an auxiliary enzyme, pyroglutamyl peptidase (pGAPase, 50 units, Qiagen, Germany), as our previously reported.[29] The used buffer consisted of 25 mM HEPES (Sigma), with pH 7.0, adjusted with HCl. […] After incubation in 96-well black plates (Greiner, Austria) for 10 min at 37 °C, the reaction was started by adding 50 μL of hQC solution (0.04 μg mL^−1). The excitation/emission wavelengths at 380/460 nm were correlated with the amount of ACM, the last product of the enzymatic process.

human QC = settings: ref bindingdb.org, cited from earlier work
[2] = design: method as in PMID 26101580; settings: cited from earlier work
[3] = IC50 for inhibition of the hQC enzyme, Table 1, HEPES pH 7.0, 37 °C
[4] = Table 2, from IC50 assumed equal to the inhibition constant ki
[5] = supplement Table S1, compounds 1_x and 3_x

human glutaminyl cyclase (hQC), sequence (Q16769 29-361): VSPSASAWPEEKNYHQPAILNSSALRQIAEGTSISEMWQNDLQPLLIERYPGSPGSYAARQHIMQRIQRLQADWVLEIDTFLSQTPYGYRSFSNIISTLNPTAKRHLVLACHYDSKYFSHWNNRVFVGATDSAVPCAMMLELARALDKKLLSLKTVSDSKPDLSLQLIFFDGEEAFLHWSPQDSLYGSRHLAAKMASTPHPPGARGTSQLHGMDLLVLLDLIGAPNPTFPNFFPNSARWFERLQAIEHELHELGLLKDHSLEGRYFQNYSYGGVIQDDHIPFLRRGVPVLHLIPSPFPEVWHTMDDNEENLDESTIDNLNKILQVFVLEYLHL

Structure (SMILES) | IC50 ([1]; IC50, supplement Table S3) [nM] | IC50 [1, 3] [nM] | ΔGEXP [1, 4] [kcal/mol] | more potent than 1_1 ([1]; ratio of IC50 values) [folds] | ΔGEXP [1, 5] [kcal/mol] | ΔGEXP (human QC; supplement Table S1, ligands 1-12) [kcal/mol] | Ki (human QC; supplement Table S3) [nM] | permeation of the BBB [2]
COc1cc2nc(NCCCn3cncc3C)sc2cc1OC [Compound 1_1] | 305 | 300 ± 90 | -8.94 | – | – | – | – | –
COc1cc2nc(NCCCn3cncc3C)[nH]c2cc1OC [Compound 1_2, 5,6-dimethoxy-N-(3-(5-methyl-1H-imidazol-1-yl)propyl)-1H-benzo[d]imidazol-2-amine] | 107 | 110 ± 30 | -9.57 | 2 | – | – | – | –
COc1ccc(Nc2nc(CCn3cncc3C)cs2)cc1OC [Compound 1_3] | 316 | 320 ± 100 | -8.92 | – | – | – | – | –
COc1ccc(Nc2nnc(CCn3cncc3C)o2)cc1OC [Compound 1_4] | 420 | 420 ± 60 | -8.75 | – | -8.69 | – | – | –
COC(=O)C(C)NC(=O)C(Cc1ccccc1)NCCCn1cncc1C (stereo not shown) [Compound 3_1] | 637 | 640 ± 90 | -8.50 | – | -8.45 | – | – | –
Cc1cncn1CCCNC(Cc1ccccc1)C(=O)NC(C)C(N)=O (stereo not shown) [Compound 3_3] | 446 | 450 ± 40 | -8.68 | – | -8.59 | – | – | –
c1ccc(Cn2ccnc2)cc1 [Compound 77918] | – | – | – | – | – | -9.03 | 262 | –
COc1cc(NC(=S)NCCCn2ccnc2)ccc1O[11CH3] [[^11C]PBD150] | – | – | – | – | – | – | – | impossible permeation the BBB
